# Measured values reported in ChEMBL document CHEMBL1201862, “PubChem BioAssay data set” (2004).
#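 Assay format: 96-well plates, 48-hour exposure. GI50 marks 50% less growth.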 Active and inactive are the calls of the source. Cut-off read from the data, not from the text of the source: active = GI50 up to about 1.1 µM and inactive = higher.
# Assays:
# Assay in all cases: inhibition of tumour cell growth, NCI panel, 48 h
# [1] = tested on: DLD-1
# [2] = tested on: DMS-114
# [3] = tested on: HCT-15
# [4] = tested on: HL-60
# [5] = tested on: KM-20L2
# [6] = tested on: LOX IMVI
# [7] = tested on: LXFL 529
# [8] = tested on: M14
# [9] = tested on: M19-MEL
# [10] = tested on: MOLT-4
# [11] = tested on: NCI-H226
# [12] = tested on: NCI-H522
# [13] = tested on: OVCAR-4
# [14] = tested on: SN12C
# [15] = tested on: SNB-19
# [16] = tested on: U-251
# [17] = tested on: UO-31
# [18] = tested on: SF-295
Compound,GI50 [1],GI50 [2],GI50 [3],GI50 [4],GI50 [5],GI50 [6],GI50 [7],GI50 [8],GI50 [9],GI50 [10],GI50 [11],GI50 [12],GI50 [13],GI50 [14],GI50 [15],GI50 [16],GI50 [17],GI50 [18]
CCOC(=O)C(=O)Nc1ccccc1C,> 100 µM (inactive),> 100 µM (inactive),> 100 µM,29.4 µM (inactive),> 100 µM (inactive),> 100 µM (inactive),> 100 µM (inactive),> 100 µM (inactive),> 100 µM (inactive),> 100 µM (inactive),> 100 µM (inactive),> 100 µM (inactive),> 100 µM (inactive),> 100 µM (inactive),> 100 µM (inactive),> 100 µM (inactive),> 100 µM (inactive),–
CCCNC(=O)C1C(=O)C(=O)N(CCC)C1=O (configuration not stated),> 100 µM (inactive),> 100 µM (inactive),> 100 µM,–,> 100 µM (inactive),> 100 µM (inactive),> 100 µM (inactive),> 100 µM (inactive),> 100 µM (inactive),> 100 µM (inactive),–,> 100 µM (inactive),> 100 µM (inactive),> 100 µM (inactive),> 100 µM (inactive),> 100 µM (inactive),> 100 µM (inactive),–
CCCCOC(=O)/C(CC(=O)C=C(C)C)=N\NS(=O)(=O)c1ccc(C)cc1,65.5 µM (inactive),21.1 µM (inactive),62.4 µM,> 100 µM (inactive),> 100 µM (inactive),71.3 µM (inactive),> 100 µM (inactive),> 100 µM (inactive),> 100 µM (inactive),> 100 µM (inactive),> 100 µM (inactive),41.8 µM (inactive),> 100 µM (inactive),> 100 µM (inactive),> 100 µM (inactive),> 100 µM (inactive),> 100 µM (inactive),> 100 µM (inactive)
O=C1C(Cl)=C(Cl)C(=O)N1c1cccc(C(F)(F)F)c1,> 93.3 µM (inactive),> 100 µM (inactive),> 100 µM,> 100 µM (inactive),> 100 µM (inactive),> 100 µM (inactive),> 100 µM (inactive),> 100 µM (inactive),> 100 µM (inactive),51.4 µM (inactive),> 100 µM (inactive),12.1 µM (inactive),> 100 µM (inactive),> 100 µM (inactive),> 100 µM (inactive),> 100 µM (inactive),> 100 µM (inactive),> 100 µM (inactive)
Cc1ccc(C2OC(COCc3ccc(Cl)cc3)C(OCc3ccc(Cl)cc3)C2O)cc1 (configuration not stated),9.29 µM (inactive),5.24 µM (inactive),7.85 µM,–,12.6 µM (inactive),–,8.47 µM (inactive),–,11.4 µM (inactive),2.06 µM (inactive),1.36 µM (inactive),–,17.8 µM (inactive),3.65 µM (inactive),17.8 µM (inactive),10.5 µM (inactive),6.76 µM (inactive),12.3 µM (inactive)
CC1(C)Cc2c(oc3ncnc(N)c23)CS1,> 100 µM (inactive),> 100 µM (inactive),> 100 µM,–,> 100 µM (inactive),> 100 µM (inactive),> 100 µM (inactive),> 100 µM (inactive),> 100 µM (inactive),> 100 µM (inactive),89.7 µM (inactive),> 100 µM (inactive),> 100 µM (inactive),> 100 µM (inactive),> 100 µM (inactive),> 100 µM (inactive),49.2 µM (inactive),> 100 µM (inactive)
Cc1cc(=O)n(-c2c(C)cccc2Cl)c(/C=C(\O)c2ccncc2)n1,> 100 µM (inactive),> 100 µM (inactive),> 100 µM,6.21 µM (inactive),> 100 µM (inactive),> 100 µM (inactive),> 100 µM (inactive),> 100 µM (inactive),–,> 100 µM (inactive),> 100 µM (inactive),> 100 µM (inactive),> 100 µM (inactive),> 100 µM (inactive),> 100 µM (inactive),> 100 µM (inactive),35.3 µM (inactive),> 100 µM (inactive)
CCOC(=O)[C@]12C3C=CC(C3)C1C(=O)C1OC12 (some centres not stated),> 100 µM (inactive),> 100 µM (inactive),> 100 µM,> 100 µM (inactive),–,> 100 µM (inactive),> 100 µM (inactive),–,> 100 µM (inactive),> 100 µM (inactive),> 100 µM (inactive),> 100 µM (inactive),> 100 µM (inactive),> 100 µM (inactive),> 100 µM (inactive),> 100 µM (inactive),> 100 µM (inactive),> 100 µM (inactive)
